Experimental data reported in ChEMBL document CHEMBL4814047, “Design, synthesis and biological activity of N-(amino)piperazine-containing benzothiazinones against Mycobacterium tuberculosis” (Eur J Med Chem, 2021).
≈ marks a conversion by molar mass, not a printed value.

Key:
hERG (KCNH2) = hERG (KCNH2) (Homo sapiens, UniProt Q12809); experiment: Inhibition of human ERG expressed in HEK293 cells at 10 uM by whole cell patch clamp method relative to control; assay type: cell-based; conditions: HEK293 cells expressing hERG
Chain of hERG (KCNH2) (Q12809 whole entry): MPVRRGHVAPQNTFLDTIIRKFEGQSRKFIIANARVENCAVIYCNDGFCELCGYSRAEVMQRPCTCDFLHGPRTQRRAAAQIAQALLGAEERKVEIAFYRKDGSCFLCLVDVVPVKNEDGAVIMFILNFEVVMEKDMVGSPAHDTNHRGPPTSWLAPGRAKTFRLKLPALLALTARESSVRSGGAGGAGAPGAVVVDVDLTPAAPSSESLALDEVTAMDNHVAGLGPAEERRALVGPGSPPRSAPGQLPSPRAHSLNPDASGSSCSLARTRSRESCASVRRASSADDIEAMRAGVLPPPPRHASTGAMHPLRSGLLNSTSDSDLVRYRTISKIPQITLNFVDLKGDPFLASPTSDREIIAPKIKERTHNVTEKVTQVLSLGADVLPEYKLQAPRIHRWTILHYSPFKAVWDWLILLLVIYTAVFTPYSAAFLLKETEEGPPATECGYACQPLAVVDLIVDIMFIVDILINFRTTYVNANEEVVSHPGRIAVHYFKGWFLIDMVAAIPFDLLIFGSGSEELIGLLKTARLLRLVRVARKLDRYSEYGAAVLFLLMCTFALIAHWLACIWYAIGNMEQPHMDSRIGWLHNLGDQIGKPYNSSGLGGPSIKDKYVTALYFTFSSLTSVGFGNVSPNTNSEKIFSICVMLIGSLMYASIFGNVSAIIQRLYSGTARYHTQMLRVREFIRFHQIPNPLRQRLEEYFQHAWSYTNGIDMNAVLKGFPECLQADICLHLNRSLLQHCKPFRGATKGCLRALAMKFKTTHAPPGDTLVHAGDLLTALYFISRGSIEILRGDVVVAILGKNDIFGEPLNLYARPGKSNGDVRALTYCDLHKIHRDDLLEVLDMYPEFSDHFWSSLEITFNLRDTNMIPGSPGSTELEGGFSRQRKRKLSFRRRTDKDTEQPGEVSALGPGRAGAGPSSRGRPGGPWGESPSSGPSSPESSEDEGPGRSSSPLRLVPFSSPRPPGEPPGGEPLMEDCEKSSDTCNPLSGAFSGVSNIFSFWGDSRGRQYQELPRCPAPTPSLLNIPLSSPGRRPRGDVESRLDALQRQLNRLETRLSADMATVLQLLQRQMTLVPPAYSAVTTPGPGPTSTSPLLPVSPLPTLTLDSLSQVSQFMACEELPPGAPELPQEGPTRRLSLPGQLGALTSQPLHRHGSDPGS

[1] = test system: Mycobacterium tuberculosis; experiment: Antimycobacterial activity against Mycobacterium tuberculosis H37Rv ATCC 27294 incubated for 7 days by microplate alamar blue assay; assay type: functional; conditions: H37Rv ATCC 27294, 168 h, time 7 day
[2] = Cytotoxicity against African green monkey Vero cells incubated for 72 hrs by MTT assay; assay type: cell-based; conditions: chlorocebus sabaeus
[3] = MRT in ICR mouse at 25 mg/kg, po measured upto 24 hrs by HPLC analysis; assay type: ADME, organism-based; conditions: in vivo
[4] = AUC (0 to infinity) in ICR mouse at 25 mg/kg, po measured upto 24 hrs by HPLC analysis; assay type: ADME, organism-based; design: route oral, dose 25 mg/kg, time <=24; conditions: in vivo
[5] = Cmax in ICR mouse at 25 mg/kg, po measured upto 24 hrs by HPLC analysis; assay type: ADME, organism-based; design: route oral, dose 25 mg/kg, time <=24; conditions: in vivo
[6] = Half life in ICR mouse at 25 mg/kg, po measured upto 24 hrs by HPLC analysis; assay type: ADME, organism-based; conditions: in vivo
[7] = Tmax in ICR mouse at 25 mg/kg, po measured upto 24 hrs by HPLC analysis; assay type: ADME, organism-based; conditions: in vivo

Structure (SMILES) | MIC [1] | CC50 at 72 h [2] | further results
O=c1nc(N2CCN(/N=C/c3ccc(OC(F)(F)F)cc3)CC2)sc2c([N+](=O)[O-])cc(C(F)(F)F)cc12 | < 0.016 µg/mL | > 64 µg/mL | inhibition at 10 µM (hERG (KCNH2)): 88.2%
O=c1nc(NN2CCN(Cc3ccncc3)CC2)sc2c([N+](=O)[O-])cc(C(F)(F)F)cc12 | > 1 µg/mL |  | 
CC(NN1CCN(c2nc(=O)c3cc(C(F)(F)F)cc([N+](=O)[O-])c3s2)CC1)c1ccc(OC(F)(F)F)cc1 (stereo unspecified) | < 0.016 µg/mL | > 64 µg/mL | 
O=c1nc(N2CCN(Nc3ccc(C(F)(F)F)cc3)CC2)sc2c([N+](=O)[O-])cc(C(F)(F)F)cc12 | < 0.016 µg/mL | > 64 µg/mL | 
O=c1nc(N2CCN(NCc3ccc(Br)cc3)CC2)sc2c([N+](=O)[O-])cc(C(F)(F)F)cc12 | < 0.016 µg/mL | > 64 µg/mL | 
O=c1nc(N2CCN(NCc3ccc(F)cc3)CC2)sc2c([N+](=O)[O-])cc(C(F)(F)F)cc12 | < 0.016 µg/mL | > 64 µg/mL | 
COc1ccc(CNN2CCN(c3nc(=O)c4cc(C(F)(F)F)cc([N+](=O)[O-])c4s3)CC2)cc1 | < 0.016 µg/mL | > 64 µg/mL | 
NN1CCN(c2nc(=O)c3cc(C(F)(F)F)cc([N+](=O)[O-])c3s2)CC1 | 0.941 µg/mL (≈ 2.51 µM) |  | 
CC(C)CN(CC(C)C)N1CCN(c2nc(=O)c3cc(C(F)(F)F)cc([N+](=O)[O-])c3s2)CC1 | < 0.016 µg/mL | > 64 µg/mL | 
O=c1nc(N2CCN(NCc3ccc(OC(F)(F)F)cc3)CC2)sc2c([N+](=O)[O-])cc(C(F)(F)F)cc12 | < 0.016 µg/mL | > 64 µg/mL | inhibition at 10 µM (hERG (KCNH2)): 71.1%
O=C(C1CCCCC1)N1CCN(Nc2nc(=O)c3cc(C(F)(F)F)cc([N+](=O)[O-])c3s2)CC1 | > 1 µg/mL |  | 
O=C(NN1CCN(c2nc(=O)c3cc(C(F)(F)F)cc([N+](=O)[O-])c3s2)CC1)c1ccc(C(F)(F)F)cc1 | 0.589 µg/mL (≈ 1.08 µM) |  | 
O=c1nc(N2CCN(Nc3ccc(OC(F)(F)F)cc3)CC2)sc2c([N+](=O)[O-])cc(C(F)(F)F)cc12 | < 0.016 µg/mL | > 64 µg/mL | inhibition at 10 µM (hERG (KCNH2)): 55.5%
O=c1nc(N2CCN(NCc3ccc(Cl)cc3)CC2)sc2c([N+](=O)[O-])cc(C(F)(F)F)cc12 | < 0.016 µg/mL | > 64 µg/mL | 
Cc1cccc(F)c1CNN1CCN(c2nc(=O)c3cc(C(F)(F)F)cc([N+](=O)[O-])c3s2)CC1 | < 0.016 µg/mL | > 64 µg/mL | 
CN(c1ccc(OC(F)(F)F)cc1)N1CCN(c2nc(=O)c3cc(C(F)(F)F)cc([N+](=O)[O-])c3s2)CC1 | < 0.016 µg/mL | > 64 µg/mL | MRT [3]: 4.34 h; AUC(0-inf) [4]: 4700 ng·h/mL; inhibition at 10 µM (hERG (KCNH2)): 45.6%; Cmax [5]: 1100 ng/mL; half-life [6]: 3.6 h; Tmax [7]: 0.667 h
O=c1nc(N2CCN(NC3CCCCC3)CC2)sc2c([N+](=O)[O-])cc(C(F)(F)F)cc12 | < 0.016 µg/mL | > 64 µg/mL | MRT [3]: 1.47 h; AUC(0-inf) [4]: 4430 ng·h/mL; inhibition at 10 µM (hERG (KCNH2)): 20.4%; Cmax [5]: 1960 ng/mL; half-life [6]: 1.28 h; Tmax [7]: 0.583 h
CON=C1CCC(N(C)N2CCN(c3nc(=O)c4cc(C(F)(F)F)cc([N+](=O)[O-])c4s3)CC2)CC1 (stereo unspecified) | < 0.016 µg/mL | > 64 µg/mL | MRT [3]: 3.89 h; AUC(0-inf) [4]: 15800 ng·h/mL; inhibition at 10 µM (hERG (KCNH2)): 22.7%; Cmax [5]: 5140 ng/mL; half-life [6]: 4.09 h; Tmax [7]: 0.5 h
O=c1nc(N2CCN(NCc3cccnc3)CC2)sc2c([N+](=O)[O-])cc(C(F)(F)F)cc12 | 0.228 µg/mL (≈ 0.489 µM) |  | 
O=c1nc(NN2CCN(Cc3ccc(OC(F)(F)F)cc3)CC2)sc2c([N+](=O)[O-])cc(C(F)(F)F)cc12 | > 1 µg/mL |  | 
Cc1ccc(CNN2CCN(c3nc(=O)c4cc(C(F)(F)F)cc([N+](=O)[O-])c4s3)CC2)cc1 | < 0.016 µg/mL | > 64 µg/mL | 
CN(CC1CCCCC1)N1CCN(c2nc(=O)c3cc(C(F)(F)F)cc([N+](=O)[O-])c3s2)CC1 | < 0.016 µg/mL | > 64 µg/mL | inhibition at 10 µM (hERG (KCNH2)): 54.6%
O=c1nc(N2CCN(NCC3CCCC3)CC2)sc2c([N+](=O)[O-])cc(C(F)(F)F)cc12 | < 0.016 µg/mL | > 64 µg/mL | 

Structure (SMILES) | MIC [1] | CC50 at 72 h [2] | further results
O=C(NN1CCN(c2nc(=O)c3cc(C(F)(F)F)cc([N+](=O)[O-])c3s2)CC1)C1CCCCC1 | 0.473 µg/mL (≈ 0.974 µM) |  | 
O=c1nc(NN2CCN(CC3CCCCC3)CC2)sc2c([N+](=O)[O-])cc(C(F)(F)F)cc12 | > 1 µg/mL |  | 
CON=C1CCC(CN(C)N2CCN(c3nc(=O)c4cc(C(F)(F)F)cc([N+](=O)[O-])c4s3)CC2)CC1 (stereo unspecified) | 0.025 µg/mL (≈ 0.0473 µM) |  | 
O=c1nc(N2CCN(NCc3cccc(C(F)(F)F)c3)CC2)sc2c([N+](=O)[O-])cc(C(F)(F)F)cc12 | < 0.016 µg/mL | > 64 µg/mL | 
CC(c1ccc(OC(F)(F)F)cc1)N(C)N1CCN(c2nc(=O)c3cc(C(F)(F)F)cc([N+](=O)[O-])c3s2)CC1 (stereo unspecified) | < 0.016 µg/mL | > 64 µg/mL | MRT [3]: 2.66 h; AUC(0-inf) [4]: 2870 ng·h/mL; inhibition at 10 µM (hERG (KCNH2)): 46.9%; Cmax [5]: 944 ng/mL; half-life [6]: 3.89 h; Tmax [7]: 0.833 h
O=c1nc(N2CCN(NCC3CCCCC3)CC2)sc2c([N+](=O)[O-])cc(C(F)(F)F)cc12 | < 0.016 µg/mL | 29.3 µg/mL (≈ 62.1 µM) | inhibition at 10 µM (hERG (KCNH2)): 64.4%
C/C(=N\N1CCN(c2nc(=O)c3cc(C(F)(F)F)cc([N+](=O)[O-])c3s2)CC1)c1ccc(OC(F)(F)F)cc1 | < 0.016 µg/mL | > 64 µg/mL | 
O=c1nc(N2CCN(N(CC3CCCC3)CC3CCCC3)CC2)sc2c([N+](=O)[O-])cc(C(F)(F)F)cc12 | 0.0803 µg/mL (≈ 0.149 µM) |  | 
CON=C1CCC(NN2CCN(c3nc(=O)c4cc(C(F)(F)F)cc([N+](=O)[O-])c4s3)CC2)CC1 (stereo unspecified) | 0.028 µg/mL (≈ 0.0559 µM) |  | 
CC(C)CNN1CCN(c2nc(=O)c3cc(C(F)(F)F)cc([N+](=O)[O-])c3s2)CC1 | 0.0281 µg/mL (≈ 0.0651 µM) |  | 
O=C(NN1CCN(c2nc(=O)c3cc(C(F)(F)F)cc([N+](=O)[O-])c3s2)CC1)c1ccc(OC(F)(F)F)cc1 | 0.965 µg/mL (≈ 1.71 µM) |  | 
O=c1nc(N2CCN(NCc3ccc(C(F)(F)F)cc3)CC2)sc2c([N+](=O)[O-])cc(C(F)(F)F)cc12 | < 0.016 µg/mL | > 64 µg/mL | 
CCC(CC)CN(CC(CC)CC)N1CCN(c2nc(=O)c3cc(C(F)(F)F)cc([N+](=O)[O-])c3s2)CC1 | 0.49 µg/mL (≈ 0.902 µM) |  | 
O=c1nc(N2CCN(NCc3ccc(O)cc3)CC2)sc2c([N+](=O)[O-])cc(C(F)(F)F)cc12 | 0.9 µg/mL (≈ 1.87 µM) |  | 
O=c1nc(N2CCN(NS(=O)(=O)C3CCCCC3)CC2)sc2c([N+](=O)[O-])cc(C(F)(F)F)cc12 | > 1 µg/mL |  | 
O=c1nc(N2CCN(NCc3cc(F)cc(F)c3)CC2)sc2c([N+](=O)[O-])cc(C(F)(F)F)cc12 | < 0.016 µg/mL | > 64 µg/mL | 
CON=C1CCC(CNN2CCN(c3nc(=O)c4cc(C(F)(F)F)cc([N+](=O)[O-])c4s3)CC2)CC1 (stereo unspecified) | 0.057 µg/mL (≈ 0.111 µM) |  | 
O=c1nc(N2CCN(NCCC3CCCCC3)CC2)sc2c([N+](=O)[O-])cc(C(F)(F)F)cc12 | < 0.016 µg/mL | > 64 µg/mL | inhibition at 10 µM (hERG (KCNH2)): 76.4%
CC(C)(C)c1ccc(CNN2CCN(c3nc(=O)c4cc(C(F)(F)F)cc([N+](=O)[O-])c4s3)CC2)cc1 | < 0.016 µg/mL | > 64 µg/mL | 
NNC(=O)c1ccncc1 [ISONIAZID] | 0.0366 µg/mL (≈ 0.267 µM) |  | 
O=c1nc(N2CCN(CC3CCCCC3)CC2)sc2c([N+](=O)[O-])cc(C(F)(F)F)cc12 [MACOZINONE] | < 0.016 µg/mL | > 64 µg/mL | 
CO[C@H]1/C=C/O[C@@]2(C)Oc3c(C)c(O)c4c(O)c(c(/C=N/N5CCN(C)CC5)c(O)c4c3C2=O)NC(=O)/C(C)=C\C=C\[C@H](C)[C@H](O)[C@@H](C)[C@@H](O)[C@@H](C)[C@H](OC(C)=O)[C@@H]1C [RIFAMPIN] | 0.0382 µg/mL (≈ 0.0464 µM) |  | 
